Results on 2 compounds are retold here after US8691517B2, “Flexible carbohydrate-bearing polymer” (Medtronic Minimed, Inc., priority 2005, dated 2014).

One may read the IC50 as the point on the concentration scale where inhibition reaches its midpoint. The low end stands for higher potency, the high end for lower potency.

The assay addresses MBL (Homo sapiens, UniProt P11226). In words: affinity of monomeric saccharide unit to MBL. It is filed as binding.

Chain of MBL (P11226 21-248): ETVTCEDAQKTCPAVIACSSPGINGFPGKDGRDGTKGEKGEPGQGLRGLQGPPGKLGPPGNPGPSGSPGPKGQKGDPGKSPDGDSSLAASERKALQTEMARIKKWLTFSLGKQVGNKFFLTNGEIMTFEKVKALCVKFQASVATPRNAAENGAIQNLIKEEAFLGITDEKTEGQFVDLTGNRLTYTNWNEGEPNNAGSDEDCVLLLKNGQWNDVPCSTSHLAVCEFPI

Take `CC(=O)N[C@H]1C(O)O[C@H](CO)[C@@H](O)[C@@H]1O` (some centres unmarked) [N-acetyl-glucosamine]: the IC50 is about 6 mM.

Compound `O=C[C@H](O)[C@@H](O)[C@@H](O)[C@H](O)CO` [galactose] had an IC50 of about 36 mM.
